According to US10214542B2, “Modified macrocyclic compounds” (BAYER PHARMA AKTIENGESELLSCHAFT, priority 2015, dated 2019):

What was measured:
CDK9/CycT1 = target: T1, CDK9/CycT1 (Homo sapiens, UniProt P50750); assay: CDK9/CycT1 high ATP kinase assay (TR-FRET, Method 1b); type: biochemical; conditions: 2 mM ATP; for IC50: Method 1b; for Selectivity high ATP CDK9 over high ATP CDK2: IC50 (high ATP CDK2)/IC50 (high ATP CDK9): Methods 1b and 2b
T1 construct: Recombinant full-length His-tagged human CDK9 and CycT1; His; purchased Invitrogen PV4131; host or cells: insect cells
T1 sequence (P50750 whole entry): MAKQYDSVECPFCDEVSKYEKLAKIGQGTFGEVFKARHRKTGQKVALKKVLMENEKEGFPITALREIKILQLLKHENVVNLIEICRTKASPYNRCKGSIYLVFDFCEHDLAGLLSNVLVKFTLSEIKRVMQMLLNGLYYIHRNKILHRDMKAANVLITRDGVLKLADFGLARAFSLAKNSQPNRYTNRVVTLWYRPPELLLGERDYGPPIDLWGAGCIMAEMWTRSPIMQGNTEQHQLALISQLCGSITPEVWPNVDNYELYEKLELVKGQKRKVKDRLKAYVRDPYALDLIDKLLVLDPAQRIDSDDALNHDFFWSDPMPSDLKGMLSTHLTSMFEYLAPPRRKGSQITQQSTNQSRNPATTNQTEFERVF
T1 sequence (O60563 whole entry partner): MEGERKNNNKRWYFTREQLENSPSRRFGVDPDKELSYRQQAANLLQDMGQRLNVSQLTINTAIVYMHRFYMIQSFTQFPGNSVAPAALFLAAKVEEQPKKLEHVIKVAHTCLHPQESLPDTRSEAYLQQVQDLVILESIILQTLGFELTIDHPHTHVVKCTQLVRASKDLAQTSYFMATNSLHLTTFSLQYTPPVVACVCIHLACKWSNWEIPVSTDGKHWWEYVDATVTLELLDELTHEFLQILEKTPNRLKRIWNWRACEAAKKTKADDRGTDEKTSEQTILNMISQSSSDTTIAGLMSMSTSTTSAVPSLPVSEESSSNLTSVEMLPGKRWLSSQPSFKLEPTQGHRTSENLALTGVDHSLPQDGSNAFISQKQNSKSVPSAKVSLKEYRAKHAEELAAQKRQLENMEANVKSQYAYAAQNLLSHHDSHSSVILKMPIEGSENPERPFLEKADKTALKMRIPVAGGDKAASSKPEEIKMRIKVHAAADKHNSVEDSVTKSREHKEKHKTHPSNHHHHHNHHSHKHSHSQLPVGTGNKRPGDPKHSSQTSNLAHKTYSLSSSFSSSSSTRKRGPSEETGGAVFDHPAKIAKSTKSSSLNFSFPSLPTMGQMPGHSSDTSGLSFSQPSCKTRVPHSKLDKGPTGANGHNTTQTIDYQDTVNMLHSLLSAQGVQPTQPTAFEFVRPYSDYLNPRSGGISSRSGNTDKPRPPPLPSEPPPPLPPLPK
Protocol: 1b. CDK9/CycT1 High ATP Kinase Assay
CDK9/CycT1-inhibitory activity of compounds of the present invention at a high ATP concentration after preincubation of enzyme and test compounds was quantified employing the CDK9/CycT1 TR-FRET assay as described in the following paragraphs.
Recombinant full-length His-tagged human CDK9 and CycT1, expressed in insect cells and purified by Ni-NTA affinity chromatography, were purchase from Invitrogen (Cat. No PV4131). As substrate for the kinase reaction biotinylated peptide biotin-Ttds-YISPLKSPYKISEG (C-terminus in amid form) was used which can be purchased e.g. from the company JERINI peptide technologies (Berlin, Germany).
For the assay 50 nl of a 100 fold concentrated solution of the test compound in DMSO was pipetted into a black low volume 384 well microtiter plate (Greiner Bio-One, Frickenhausen, Germany), 2 μl of a solution of CDK9/CycT1 in aqueous assay buffer [50 mM Tris/HCl pH 8.0, 10 mM MgCl2, 1.0 mM dithiothreitol, 0.1 mM sodium ortho-vanadate, 0.01% (v/v) Nonidet-P40 (Sigma)] were added and the mixture was incubated for 15 min at 22° C. to allow pre-binding of the test compounds to the enzyme before the start of the kinase reaction. […] The concentration of CDK9/CycT1 was adjusted depending of the activity of the enzyme lot and was chosen appropriate to have the assay in the linear range, typical concentrations were in the range of 0.5 μg/mL. The reaction was stopped by the addition of 5 μl of a solution of TR-FRET detection reagents (0.2 μM streptavidine-XL665 [Cisbio Bioassays, Codolet, France] and 1 nM anti-RB(pSer807/pSer811)-antibody from BD Pharmingen [#558389] and 1.2 nM LANCE EU-W1024 labeled anti-mouse IgG antibody [Perkin-Elmer, product no. AD0077]) in an aqueous EDTA-solution (100 mM EDTA, 0.2% (w/v) bovine serum albumin in 100 mM HEPES pH 7.5).
The resulting mixture was incubated 1 h at 22° C. to allow the formation of complex between the phosphorylated biotinylated peptide and the detection reagents. Subsequently the amount of phosphorylated substrate was evaluated by measurement of the resonance energy transfer from the Eu-chelate to the streptavidine-XL. Therefore, the fluorescence emissions at 620 nm and 665 nm after excitation at 350 nm was measured in a HTRF reader, e.g. a Rubystar (BMG Labtechnologies, Offenburg, Germany) or a Viewlux (Perkin-Elmer). The ratio of the emissions at 665 nm and at […] was taken as the measure for the amount of phosphorylated substrate. The data were normalised (enzyme reaction without inhibitor=0% inhibition, all other assay components but no enzym=100% inhibition).

B16F10 cells = assay: Proliferation assay, crystal violet (Method 3); type: cell-based; conditions: Mus musculus, B16-F10, 96 h; B16F10, 4 days; read-out: Inhibition of B16F10 cell proliferation IC50
Protocol: (§1) Cultivated tumour cells (HeLa, human cervical tumour cells, ATCC CCL-2; NCI-H460, human non-small cell lung carcinoma cells, ATCC HTB-177; DU 145, hormone-independent human prostate carcinoma cells, ATCC HTB-81; HeLa-MaTu-ADR, multidrug-resistant human cervical carcinoma cells, EPO-GmbH Berlin; Caco-2, human colorectal carcinoma cells, ATCC HTB-37; B16F10, mouse melanoma cells, ATCC CRL-6475) were plated at a density of 5,000 cells/well (DU145, HeLa-MaTu-ADR), 3,000 cells/well (NCI-H460, HeLa), 1,500 cells/well (Caco-2), or 1,000 cells/well (B16F10) in a 96-well multititer plate in 200 μL of their respective growth medium supplemented 10% fetal calf serum. After 24 hours, the cells of one plate (zero-point plate) were stained with crystal violet (see below), while the medium of the other plates was supplemented with the test substances in various concentrations (0 μM, as well as in the range of 0.0001-10 μM; the final concentration of the solvent dimethyl sulfoxide was adjusted to 0.1%) using a Hewlett-Packard HP D300 Digital Dispenser. The cells were incubated for 4 days in the presence of test substances. Cell proliferation was determined by staining the cells with crystal violet: the cells were fixed by adding 20 μl/measuring point of an 11% glutaric aldehyde solution for 15 minutes at room temperature. After three washing cycles of the fixed cells with water, the plates were dried at room temperature. The cells were stained by adding 100 μl/measuring point of a 0.1% crystal violet solution (pH 3.0). After three washing cycles of the stained cells with water, the plates were dried at room temperature. The dye was dissolved by adding 100 μl/measuring point of a 10% acetic acid solution. The extinction was determined by photometry at a wavelength of 595 nm. The change of cell number, in percent, was calculated by normalization of the measured values to the extinction values of the zero-point plate (=0%) and the extinction of the untreated (0 μm) cells (=100%). The IC50 values (inhibitory concentration at 50% of maximal effect) were determined by means of a 4 parameter fit.

Caco-2 cells = assay: Proliferation assay, crystal violet (Method 3); type: cell-based; conditions: Homo sapiens, 96 h; Caco-2, 4 days; read-out: Inhibition of Caco-2 cell proliferation IC50
Protocol: as §1

DU145 cells = assay: Proliferation assay, crystal violet (Method 3); type: cell-based; conditions: Homo sapiens, DU-145, 96 h; DU145, 4 days; read-out: Inhibition of DU145 cell proliferation IC50
Protocol: as §1

HeLa-MaTu-ADR cells = assay: Proliferation assay, crystal violet (Method 3); type: cell-based; conditions: Homo sapiens, 96 h, 4 days, read-out: Inhibition of HeLa-MaTu-ADR cell proliferation IC50
Protocol: as §1

NCI-H460 cells = assay: Proliferation assay, crystal violet (Method 3); type: cell-based; conditions: Homo sapiens, 96 h; NCI-H460, 4 days; read-out: Inhibition of NCI-H460 cell proliferation IC50
Protocol: as §1

| SMILES | IC50 (CDK9/CycT1) [nM] | Selectivity high ATP CDK9 over high ATP CDK2: IC50 (high ATP CDK2)/IC50 (high ATP CDK9) (CDK9/CycT1) | IC50 (B16F10 cells) [nM] | IC50 (Caco-2 cells) [nM] | IC50 (DU145 cells) [nM] | IC50 (HeLa-MaTu-ADR cells) [nM] | IC50 (NCI-H460 cells) [nM] |
| --- | --- | --- | --- | --- | --- | --- | --- |
| C[S+]([O-])Cc1cc2nc(c1)OCCCCc1cc(F)ccc1-c1cc(ncc1F)N2 (racemic) [Example 5, (rac)-2,18-Difluoro-9-[(methylsulfinyl)methyl]-13,14,15,16-tetrahydro-6H-7,11-(azeno)-5,1-(metheno)-12,4,6-benzoxadiazacyclooctadecine] | 6 | 1375 | – | 761 | 836 | 830 | 1070 |
| CC(C)(C)OC(=O)N=S(C)(=O)Cc1cc2cc(c1)OCCCNc1cc(F)ccc1-c1nc(ncc1F)N2 (racemic) [Example 13, (rac)-tert-butyl[{[15,19-difluoro-1,2,3,4-tetrahydro-16,12-(azeno)-6,10-(metheno)-5,1,11,13-benzoxatriazacyclooctadecin-8(11H)-yl]methyl}(methyl)oxido-λ^6-sulfanylidene]carbamate] | 3 | 426 | – | 68 | 55 | 94 | 79 |
| CS(=N)(=O)Cc1cc2cc(c1)OCCCNc1cc(F)ccc1-c1nc(ncc1F)N2 (racemic) [Example 14, rac-15,19-difluoro-8-[(S-methylsulfonimidoyl)methyl]-1,2,3,4-tetrahydro-16,12-(azeno)-6,10-(metheno)-5,1,11,13-benzoxatriazacyclooctadecine] | 1 | 94 | – | – | – | – | – |
| CN1CCCCOc2cc(F)ccc2-c2nc(ncc2F)Nc2cc(CS(C)(=N)=O)cc1c2 (racemic) [Example 23, (rac)-16,20-difluoro-6-methyl-9-[(S-methylsulfonimidoyl)methyl]-3,4,5,6-tetrahydro-2H,12H-13,17-(azeno)-11,7-(metheno)-1,6,12,14-benzoxatriazacyclononadecine] | 2.1 | 629 | – | – | – | – | – |
| CC(C)(C)OC(=O)N=S(C)(=O)Cc1cc2cc(c1)Nc1ncc(F)c(n1)-c1ccc(F)cc1OCCCCN2 (racemic) [Example 24, (rac)-tert-butyl[{[16,20-difluoro-3,4,5,6-tetrahydro-2H,12H-13,17-(azeno)-11,7-(metheno)-1,6,12,14-benzoxatriazacyclononadecin-9-yl]methyl}(methyl)oxido-λ^6-sulfanylidene]carbamate] | 44 | >454 | – | – | – | – | – |

Other lines, results leading:

| IC50 (CDK9/CycT1) [nM] | Selectivity high ATP CDK9 over high ATP CDK2: IC50 (high ATP CDK2)/IC50 (high ATP CDK9) (CDK9/CycT1) | IC50 (B16F10 cells) [nM] | IC50 (Caco-2 cells) [nM] | IC50 (DU145 cells) [nM] | IC50 (HeLa-MaTu-ADR cells) [nM] | IC50 (NCI-H460 cells) [nM] | SMILES |
| --- | --- | --- | --- | --- | --- | --- | --- |
| 12.7 | 634 | 77 | 98 | 93 | 119 | 80 | CS(=O)(Cc1cc2nc(c1)Nc1cc(c(F)cn1)-c1ccc(F)cc1OCCCCN2)=NC(=O)OCc1ccccc1 (racemic) [Example 2, (rac)-Benzyl[{[16,20-difluoro-3,4,5,6-tetrahydro-2H,12H-11,7-(azeno)-13,17-(metheno)-1,6,12,14-benzoxatriazacyclononadecin-9-yl]methyl}(methyl)oxido-λ^6-sulfanylidene]carbamate] |
| 3.9 | 167 | – | – | – | – | – | CS(=N)(=O)Cc1cc2nc(c1)Nc1cc(c(F)cn1)-c1ccc(F)cc1OCCCCN2 (racemic) [Example 3, (rac)-16,20-Difluoro-9-[(S-methylsulfonimidoyl)methyl]-3,4,5,6-tetrahydro-2H,12H-11,7-(azeno)-13,17-(metheno)-1,6,12,14-benzoxatriazacyclononadecine] |
| 1.9 | 32.1 | 44 | 33 | 30 | 53 | 37 | CC(C)(C)OC(=O)N=S(C)(=O)Cc1cc2nc(c1)Nc1cc(c(F)cn1)-c1ccc(F)cc1OCCCN2 (racemic) [Example 7, (rac)-tert-butyl[{[15,19-difluoro-2,3,4,5-tetrahydro-11H-10,6-(azeno)-16,12-(metheno)-1,5,11,13-benzoxatriazacyclooctadecin-8-yl]methyl}(methyl)oxido-λ^6-sulfanylidene]carbamate] |
| 0.7 | 41.4 | 11 | 7.6 | 5.6 | 5 | 39 | CS(=N)(=O)Cc1cc2nc(c1)Nc1cc(c(F)cn1)-c1ccc(F)cc1OCCCN2 (racemic) [Example 8, (rac)-15,19-difluoro-8-[(S-methylsulfonimidoyl)methyl]-2,3,4,5-tetrahydro-11H-10,6-(azeno)-16,12-(metheno)-1,5,11,13-benzoxatriazacyclooctadecine] |
| 6.8 | 37.2 | 85 | 48 | 36 | 75 | 39 | CC(C)(C)OC(=O)N=S(C)(=O)Cc1cc2nc(c1)Nc1cc(c(F)cn1)-c1ccc(F)cc1OCCCCCN2 (racemic) [Example 9, (rac)-tert-butyl[{[17,21-difluoro-2,3,4,5,6,7-hexahydro-13H-12,8-(azeno)-14,18-(metheno)-1,7,13,15-benzoxatriazacycloicosin-10-yl]methyl}(methyl)oxido-λ^6-sulfanylidene]carbamate] |
| 1 | 102 | 26 | 13 | 11 | 19 | 18 | CS(=N)(=O)Cc1cc2nc(c1)Nc1cc(c(F)cn1)-c1ccc(F)cc1OCCCCCN2 (racemic) [Example 10, (rac)-17,21-difluoro-10-[(S-methylsulfonimidoyl)methyl]-2,3,4,5,6,7-hexahydro-13H-12,8-(azeno)-14,18-(metheno)-1,7,13,15-benzoxatriazacycloicosine] |
